Our source for the pest or weed control and YFM rating values is patent publication US10219516B2, “Molecules having pesticidal utility, and intermediates, compositions, and processes, related thereto” (priority 2015, dated 2019).

Common to all, as to format: in vivo
Test [1] concerns Beet Armyworm (Spodoptera exigua, LAPHEG). Kind of test: Bioassay on Beet Armyworm (BAW), 128-well diet tray assay. The conditions noted are these: Beet Armyworm, 128-well diet tray assay, read-out: BAW rating. The gist of the method:
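Second-instar larvae, one to five per well, placed on artificial diet surface-treated with 50 μg/cm^2 compound applied in 90:10 acetone-water and dried. Held 5–7 days at 25° C., 14:10 light-dark. Percent mortality recorded per well and averaged over eight wells.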

Test [2] concerns Yellow Fever Mosquito (Aedes aegypti, AEDSAE). The experiment in a line: Bioassay on Yellow Fever Mosquito (YFM), 96-well plate larval assay. The conditions noted are these: Yellow Fever Mosquito, 96-well plate larval assay. In a few lines: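 Compound stocks at 4000 ppm in DMSO were diluted with 90:10 water/acetone, and 15 μL aliquots were dispensed into six replicate plates. About 1-day-old larvae in liver-powder water were added per well. Plates were covered and held at room temperature for 3 days before each well was scored for mortality.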

In test [3] the test system is Cabbage Looper (Trichoplusia ni, TRIPNI). The experiment in a line: Bioassay on Cabbage Looper (CL), 128-well diet tray assay. The settings on record: Trichoplusia ni; Cabbage Looper, 128-well diet tray assay; read-out: CL rating. The gist of the method: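 Second-instar larvae, one to five per well, placed on artificial diet treated with 50 μg/cm^2 test molecule in 90:10 acetone-water, dried before infestation. Held 5–7 days at 25° C, 14:10 light-dark; percent mortality averaged over eight wells.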

With `COc1nccc(NC(=O)c2cc(NC(=O)[C@H]3[C@H](c4cc(Cl)cc(Cl)c4)C3(Cl)Cl)ccc2Cl)c1Cl` (relative stereo) [F546, 2-Chloro-N-(3-chloro-2-methoxypyridin-4-yl)-5-(trans-2,2-dichloro-3-(3,5-dichlorophenyl)cyclopropane-1-carboxamido)benzamide], the pest or weed control at 50 µg/cm2 in test [1] and in test [3] was 50 to 100% throughout. Besides, the YFM rating entry in test [2] was “A (80-100)”.
Take `COc1nccc(NC(=O)c2cc(NC(=O)[C@H]3[C@H](c4ccc(F)c(Cl)c4)C3(Cl)Cl)ccc2Cl)c1Cl` (relative stereo) [F547, 2-Chloro-N-(3-chloro-2-methoxypyridin-4-yl)-5-(trans-2,2-dichloro-3-(3-chloro-4-fluorophenyl)cyclopropane-1-carboxamido)benzamide]: the pest or weed control at 50 µg/cm2 in test [1] and in test [3] was 50 to 100% throughout. The YFM rating result in test [2] is listed as “A (80-100)”.
On to `COc1cc(NC(=O)c2cc(NC(=O)[C@H]3[C@H](c4cc(Cl)cc(Cl)c4)C3(Cl)Cl)ccc2Cl)c(Br)cn1` (relative stereo) [F548, N-(5-Bromo-2-methoxypyridin-4-yl)-2-chloro-5-(trans-2,2-dichloro-3-(3,5-dichlorophenyl)cyclopropane-1-carboxamido)benzamide], for which the pest or weed control at 50 µg/cm2 in test [1] and in test [3] was 50 to 100% each time. Further, in test [2], the YFM rating entry was “A (80-100)”.
Take `COc1cc(NC(=O)c2cc(NC(=O)[C@H]3[C@H](c4ccc(F)c(Cl)c4)C3(Cl)Cl)ccc2Cl)c(Br)cn1` (relative stereo) [F549, N-(5-Bromo-2-methoxypyridin-4-yl)-2-chloro-5-(trans-2,2-dichloro-3-(3-chloro-4-fluorophenyl)cyclopropane-1-carboxamido)benzamide]: the pest or weed control at 50 µg/cm2 in test [1] and in test [3] was 50 to 100% throughout. In addition, in test [2], the YFM rating entry was “A (80-100)”.
Take `COc1ccc(NC(=O)c2cc(NC(=O)[C@H]3[C@H](c4cc(Cl)cc(Cl)c4)C3(Cl)Cl)ccc2Cl)cn1` (relative stereo) [F550, 2-Chloro-5-(trans-2,2-dichloro-3-(3,5-dichlorophenyl)cyclopropane-1-carboxamido)-N-(6-methoxypyridin-3-yl)benzamide]: the pest or weed control at 50 µg/cm2 in test [1] and in test [3] was 50 to 100% each time. The YFM rating result in test [2] is on record as “A (80-100)”.
Turning to `COc1ccc(NC(=O)c2cc(NC(=O)[C@H]3[C@H](c4ccc(F)c(Cl)c4)C3(Cl)Cl)ccc2Cl)cn1` (relative stereo) [F551, 2-Chloro-5-(trans-2,2-dichloro-3-(3-chloro-4-fluorophenyl)cyclopropane-1-carboxamido)-N-(6-methoxypyridin-3-yl)benzamide], the pest or weed control at 50 µg/cm2 in test [1] and in test [3] was 50 to 100% throughout. Besides, the YFM rating result in test [2] is listed as “A (80-100)”.
Regarding `COc1ccc(NC(=O)c2cc(NC(=O)[C@H]3[C@H](c4cc(Cl)cc(Cl)c4)C3(Cl)Cl)ccc2Cl)c(Cl)n1` (relative stereo) [F552, 2-Chloro-N-(2-chloro-6-methoxypyridin-3-yl)-5-(trans-2,2-dichloro-3-(3,5-dichlorophenyl)cyclopropane-1-carboxamido)benzamide], the pest or weed control at 50 µg/cm2 in test [1] and in test [3] was 50 to 100% each time. The YFM rating result in test [2] is given as “A (80-100)”.
As to `COc1ccc(NC(=O)c2cc(NC(=O)[C@H]3[C@H](c4ccc(F)c(Cl)c4)C3(Cl)Cl)ccc2Cl)c(Cl)n1` (relative stereo) [F553, 2-Chloro-N-(2-chloro-6-methoxypyridin-3-yl)-5-(trans-2,2-dichloro-3-(3-chloro-4-fluorophenyl)cyclopropane-1-carboxamido)benzamide], the pest or weed control at 50 µg/cm2 in test [1] and in test [3] was 50 to 100% throughout. For the same compound, the YFM rating result in test [2] is recorded as “A (80-100)”.
For the compound `O=C(Nc1ccc(F)cc1F)c1cc(NC(=O)[C@H]2[C@H](c3cc(Cl)cc(C(F)F)c3)C2(Cl)Cl)ccc1Cl` (relative stereo) [F558, 2-Chloro-5-(trans-2,2-dichloro-3-(3-chloro-5-(difluoromethyl)phenyl)cyclopropane-1-carboxamido)-N-(2,4-difluorophenyl)benzamide], the pest or weed control at 50 µg/cm2 in test [1] and in test [3] was 50 to 100% each time. For the same compound, the YFM rating result in test [2] was “A (80-100)”.
Consider `O=C(Nc1ccc(F)cc1F)c1cc(NC(=O)[C@H]2[C@H](c3ccc(Cl)c(C(F)F)c3)C2(Cl)Cl)ccc1Cl` (relative stereo) [F559, 2-Chloro-5-(trans-2,2-dichloro-3-(4-chloro-3-(difluoromethyl)phenyl)cyclopropane-1-carboxamido)-N-(2,4-difluorophenyl)benzamide], for which the pest or weed control at 50 µg/cm2 in test [1] and in test [3] was 50 to 100% each time. In addition, the YFM rating entry in test [2] is listed as “A (80-100)”.
On to `O=C(Nc1ccc(F)cc1F)c1cc(NC(=O)[C@H]2[C@H](c3cc(F)cc(C(F)F)c3)C2(Cl)Cl)ccc1Cl` (relative stereo) [F560, 2-Chloro-5-(trans-2,2-dichloro-3-(3-(difluoromethyl)-5-fluorophenyl)cyclopropane-1-carboxamido)-N-(2,4-difluorophenyl)benzamide], for which the pest or weed control at 50 µg/cm2 in test [1] and in test [3] was 50 to 100% each time. For the same compound, in test [2], the YFM rating result is “A (80-100)”.
Turning to `O=C(Nc1ccc(F)cc1F)c1cc(NC(=O)[C@H]2[C@H](c3ccc(F)c(C(F)F)c3)C2(Cl)Cl)ccc1Cl` (relative stereo) [F561, 2-Chloro-5-(trans-2,2-dichloro-3-(3-(difluoromethyl)-4-fluorophenyl)cyclopropane-1-carboxamido)-N-(2,4-difluorophenyl)benzamide], the pest or weed control at 50 µg/cm2 in test [1] and in test [3] was 50 to 100% each time. Moreover, the YFM rating result in test [2] is listed as “A (80-100)”.
`O=C(Nc1ccc(F)cc1F)c1cc(NC(=O)[C@H]2[C@H](c3ccc(C(F)F)c(Cl)c3)C2(Cl)Cl)ccc1Cl` (relative stereo) [F562, 2-Chloro-5-(trans-2,2-dichloro-3-(3-chloro-4-(difluoromethyl)phenyl)cyclopropane-1-carboxamido)-N-(2,4-difluorophenyl)benzamide]: the pest or weed control at 50 µg/cm2 in test [1] and in test [3] was 50 to 100% throughout. In addition, the YFM rating entry in test [2] is listed as “A (80-100)”.
On to `O=C(Nc1ccc(F)cc1F)c1cc(NC(=O)[C@H]2[C@H](c3ccc(C(F)F)c(F)c3)C2(Cl)Cl)ccc1Cl` (relative stereo) [F563, 2-Chloro-5-(trans-2,2-dichloro-3-(4-(difluoromethyl)-3-fluorophenyl)cyclopropane-1-carboxamido)-N-(2,4-difluorophenyl)benzamide], for which the pest or weed control at 50 µg/cm2 in test [1] and in test [3] was 50 to 100% throughout. In addition, the YFM rating result in test [2] is listed as “A (80-100)”.
On to `O=C(Nc1ccc(F)cc1F)c1cc(NC(=O)[C@H]2[C@H](c3cccc(C(F)F)c3)C2(Cl)Cl)ccc1Cl` (relative stereo) [F564, 2-Chloro-5-(trans-2,2-dichloro-3-(3-(difluoromethyl)phenyl)cyclopropane-1-carboxamido)-N-(2,4-difluorophenyl)benzamide], for which the pest or weed control at 50 µg/cm2 in test [1] and in test [3] was 50 to 100% each time. Also, the YFM rating result in test [2] was “A (80-100)”.
As for `O=C(Nc1ccc(F)cc1F)c1cc(NC(=O)[C@H]2[C@H](c3ccc(C(F)F)cc3)C2(Cl)Cl)ccc1Cl` (relative stereo) [F565, 2-Chloro-5-(trans-2,2-dichloro-3-(4-(difluoromethyl)phenyl)cyclopropane-1-carboxamido)-N-(2,4-difluorophenyl)benzamide], the pest or weed control at 50 µg/cm2 in test [1] and in test [3] was 50 to 100% throughout. Also, the YFM rating entry in test [2] is given as “A (80-100)”.
Consider `C=Cc1c(F)cc([C@H]2[C@H](C(=O)Nc3ccc(Cl)c(C(=O)Nc4ccc(F)cc4F)c3)C2(Cl)Cl)cc1F` (relative stereo) [F566, 2-Chloro-5-(trans-2,2-dichloro-3-(3,5-difluoro-4-vinylphenyl)cyclopropane-1-carboxamido)-N-(2,4-difluorophenyl)benzamide], for which the pest or weed control at 50 µg/cm2 in test [1] and in test [3] was 50 to 100% throughout. Also, the YFM rating result in test [2] is listed as “A (80-100)”.
Take `Cc1cc(N)ccc1NC(=O)c1cc(NC(=O)[C@H]2[C@H](c3ccc(Cl)c(Cl)c3)C2(Cl)Cl)ccc1Cl` (relative stereo) [F574, trans-N-(4-Amino-2-methylphenyl)-2-chloro-5-(2,2-dichloro-3-(3,4-dichlorophenyl)cyclopropane-1-carboxamido)benzamide]: the pest or weed control at 50 µg/cm2 in test [1] and in test [3] was 50 to 100% each time. Besides, the YFM rating result in test [2] was “A (80-100)”.
As to `O=C(Nc1ncc(F)cc1F)c1cc(NC(=O)[C@H]2[C@H](c3ccc(Cl)c(C(F)F)c3)C2(Cl)Cl)ccc1Cl` (relative stereo) [F585, 2-Chloro-5-(trans-2,2-dichloro-3-(4-chloro-3-(difluoromethyl)phenyl)cyclopropane-1-carboxamido)-N-(3,5-difluoropyridin-2-yl)benzamide], the pest or weed control at 50 µg/cm2 in test [1] and in test [3] was 50 to 100% throughout. In addition, the YFM rating result in test [2] is reported as “A (80-100)”.
